The text below walks through data of patent US20240059677A1, “SUBSTITUTED PYRIMIDINE DERIVATIVES AS NICOTINIC ACETYLCHOLINESTERASE RECEPTOR ALPHA 6 MODULATOR” (priority 2020, published 2024).

The target in the test is T1, human nAChRα6-α3 chimera, in addition to β2 and β3^V273S subunits (Homo sapiens, UniProt P32297+Q15825).
T1 construct: expressed in transfected cells
T1 sequence (Q05901 25-458 V273S): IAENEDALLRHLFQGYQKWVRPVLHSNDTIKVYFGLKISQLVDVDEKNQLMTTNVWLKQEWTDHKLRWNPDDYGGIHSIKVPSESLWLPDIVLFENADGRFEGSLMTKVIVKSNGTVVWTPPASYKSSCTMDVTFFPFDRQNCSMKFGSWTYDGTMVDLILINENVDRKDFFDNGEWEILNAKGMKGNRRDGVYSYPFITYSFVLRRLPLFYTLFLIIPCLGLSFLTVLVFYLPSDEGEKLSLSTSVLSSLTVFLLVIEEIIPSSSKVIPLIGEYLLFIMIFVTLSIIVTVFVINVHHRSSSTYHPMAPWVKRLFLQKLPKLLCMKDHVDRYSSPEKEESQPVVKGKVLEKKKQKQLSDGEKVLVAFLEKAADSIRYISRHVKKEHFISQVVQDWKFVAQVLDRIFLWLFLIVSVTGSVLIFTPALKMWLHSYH
T1 sequence (P17787 26-502, stated change not applied, further chain): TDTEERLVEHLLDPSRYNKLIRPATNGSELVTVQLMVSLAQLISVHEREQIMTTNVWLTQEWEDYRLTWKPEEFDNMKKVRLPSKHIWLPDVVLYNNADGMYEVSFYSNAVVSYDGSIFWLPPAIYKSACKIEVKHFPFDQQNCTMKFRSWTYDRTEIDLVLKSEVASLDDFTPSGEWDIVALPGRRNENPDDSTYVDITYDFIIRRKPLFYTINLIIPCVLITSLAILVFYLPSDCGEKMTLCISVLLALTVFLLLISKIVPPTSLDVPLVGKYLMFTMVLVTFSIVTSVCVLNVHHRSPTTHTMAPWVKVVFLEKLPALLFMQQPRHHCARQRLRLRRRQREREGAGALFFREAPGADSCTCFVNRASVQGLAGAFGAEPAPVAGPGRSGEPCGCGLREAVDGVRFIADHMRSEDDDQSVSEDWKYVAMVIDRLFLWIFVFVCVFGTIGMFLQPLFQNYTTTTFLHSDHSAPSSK
T1 sequence (Q15825+P32297 fused with the stated changes): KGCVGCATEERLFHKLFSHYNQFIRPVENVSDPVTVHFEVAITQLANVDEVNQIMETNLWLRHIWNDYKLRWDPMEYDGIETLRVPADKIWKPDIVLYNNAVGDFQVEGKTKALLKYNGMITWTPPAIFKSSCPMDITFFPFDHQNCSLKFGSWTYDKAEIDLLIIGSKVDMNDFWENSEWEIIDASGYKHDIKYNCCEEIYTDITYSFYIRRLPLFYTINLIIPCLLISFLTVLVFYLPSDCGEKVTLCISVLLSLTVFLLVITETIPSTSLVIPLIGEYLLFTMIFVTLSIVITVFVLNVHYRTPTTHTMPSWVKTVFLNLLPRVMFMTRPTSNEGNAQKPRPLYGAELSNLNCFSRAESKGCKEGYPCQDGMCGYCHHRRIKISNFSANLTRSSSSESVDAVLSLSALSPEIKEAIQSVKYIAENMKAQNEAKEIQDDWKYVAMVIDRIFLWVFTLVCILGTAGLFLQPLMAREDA
Nature of the test: fluorescence-based calcium assay: inhibition of nicotine stimulated nAChRα6 activity (FLIPR). The conditions noted are these: HEK cell line stably expressing the receptor; 10 min pre-incubation, nicotine EC80; 10-point curve, duplicate wells; read-out: IC50. The procedure, abridged: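 HEK cells stably expressing the human α6-α3 chimera with β2 and β3^V273S were loaded with calcium dye at 30° C. Compounds were pre-incubated for 10 min before nicotine at EC80, and the fluorescence change was read on a FLIPR. Ten-point half-log concentration-response, duplicate wells.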
Consider `COc1ccc(-c2cnc(NC3CCCN(C(C)C)C3)nc2C)c(F)c1` (stereo not shown) [Example 48, 5-(2-fluoro-4-methoxyphenyl)-N-(1-isopropylpiperidin-3-yl)-4-methyl-pyrimidin-2-amine], for which the IC50 worked out at 83 nM.

Regarding `COc1ccc(-c2cnc(NCC3CCCN(C(C)C)C3)nc2C)c(F)c1` (stereo not shown) [Example 49, 5-(2-fluoro-4-methoxyphenyl)-N-((1-isopropylpiperidin-3-yl)methyl)-4-methyl-pyrimidin-2-amine], the IC50 was 69 nM.

As for `COc1ccc(-c2cnc(NCC3CCCCN3C(C)C)nc2C)c(F)c1` (stereo not shown) [Example 50, 5-(2-fluoro-4-methoxyphenyl)-N-((1-isopropylpiperidin-2-yl)methyl)-4-methyl-pyrimidin-2-amine], the IC50 was 103 nM.

As for `COc1ccc(-c2cnc(NCC3CCCOC3)nc2C)c(F)c1` (stereo not shown) [Example 51, 5-(2-fluoro-4-methoxyphenyl)-4-methyl-N-((tetrahydro-2H-pyran-3-yl)methyl)pyrimidin-2-amine], the IC50 is 1100 nM.

With `Cc1nc(NC2CCC(S(C)(=O)=O)C2)ncc1-c1ccc(F)cc1F` (stereo not shown) [Example 52, 5-(2,4-difluorophenyl)-4-methyl-N-(3-(methylsulfonyl)cyclopentyl) pyrimidin-2-amine], the IC50 was found to be 1530 nM.

Regarding `Cc1nc(NC2CCCN(CC(F)(F)F)C2)ncc1-c1ccc(F)cc1F` (stereo not shown) [Example 60, 5-(2,4-difluorophenyl)-4-methyl-N-(1-(2,2,2-trifluoroethyl)piperidin-3-yl) pyrimidin-2-amine], the 50% inhibitory concentration (IC50) was 1180 nM.

As to `COc1ccc(F)c(-c2cnc(NCC3COCCN3C)nc2C)c1` (stereo not shown) [Example 61, 5-(2-fluoro-5-methoxyphenyl)-4-methyl-N-((4-methylmorpholin-3-yl)methyl)pyrimidin-2-amine], the half-inhibitory concentration (IC50) stood at 533 nM.

In the case of `COc1ccc(-c2cnc(NCC3COCCN3C)nc2C)c(Cl)c1` (stereo not shown) [Example 62, 5-(2-chloro-4-methoxyphenyl)-4-methyl-N-((4-methylmorpholin-3-yl)methyl)pyrimidin-2-amine], the IC50 amounted to 64 nM.

`COc1ccc(-c2cnc(NCc3cncn3C)nc2C)c(Cl)c1` [Example 63, 5-(2-chloro-4-methoxyphenyl)-4-methyl-N-((1-methyl-1H-imidazol-5-yl)methyl)pyrimidin-2-amine]: the half-maximal inhibitory concentration (IC50) was 141 nM.

With `CN1CCC(Nc2ncc(-c3ccc(F)cc3F)c(C#N)n2)CC1` [Example 66, 5-(2,4-difluorophenyl)-2-((1-methylpiperidin-4-yl)amino)pyrimidine-4-carbonitrile], the IC50 is 94 nM.

As to `Cc1nc(NC2CCN(C(C)C)CC2)ncc1-c1ccc(F)cc1F` [Example 67, 5-(2,4-difluorophenyl)-N-(1-isopropylpiperidin-4-yl)-4-methyl-pyrimidin-2-amine], the IC50 was determined as 66 nM.

Turning to `COc1ccc(-c2c(C)nc(NCC3CCCN3C)nc2C)c(F)c1` (stereo not shown) [Example 70, 5-(2-fluoro-4-methoxyphenyl)-4,6-dimethyl-N-((1-methylpyrrolidin-2-yl)methyl)pyrimidin-2-amine], the IC50 came out at 72 nM.

`Cc1nc(NC2CCN(C)CC2)ncc1-c1ccc(F)cc1F` [Example 71, 5-(2,4-difluorophenyl)-4-methyl-N-(1-methylpiperidin-4-yl)pyrimidin-2-amine]: the 50% inhibitory concentration (IC50) amounted to 54 nM.

For the molecule `Cc1nc(NC2CCCN(C(C)C)C2)ncc1-c1ccc(F)cc1F` (stereo not shown) [Example 72, 5-(2,4-difluorophenyl)-N-(1-isopropylpiperidin-3-yl)-4-methyl-pyrimidin-2-amine], the half-inhibitory concentration (IC50) amounted to 52 nM.

For the molecule `COc1ccc(-c2c(C)nc(NCC3CCCN3C)nc2OC)c(F)c1` (stereo not shown) [Example 75, 5-(2-fluoro-4-methoxyphenyl)-4-methoxy-6-methyl-N-((1-methylpyrrolidin-2-yl)methyl)pyrimidin-2-amine], the IC50 came out at 94 nM.

For `Cc1nc(NC[C@H]2CC(F)(F)CN2C)ncc1-c1ccc(F)cc1F` [Example 80, (R)—N-((4,4-difluoro-1-methylpyrrolidin-2-yl)methyl)-5-(2,4-difluorophenyl)-4-methyl-pyrimidin-2-amine], the IC50 came out at 1470 nM.

As to `COc1ccc(-c2cnc(NC3CCN(C(C)C)CC3)nc2C#N)c(F)c1` [Example 81, 5-(2-fluoro-4-methoxyphenyl)-2-((1-isopropylpiperidin-4-yl)amino) pyrimidine-4-carbonitrile], the IC50 worked out at 98 nM.

For the molecule `Cc1nc(NCC2CCCN2)ncc1-c1ccc(F)cc1F` (stereo not shown) [Example 82, 5-(2,4-difluorophenyl)-4-methyl-N-(pyrrolidin-2-ylmethyl)pyrimidin-2-amine], the IC50 stood at 18 nM.

As for `CCN1CCCC1CNc1ncc(-c2ccc(F)cc2F)c(C)n1` (stereo not shown) [Example 85, 5-(2,4-difluorophenyl)-N-((1-ethylpyrrolidin-2-yl)methyl)-4-methyl-pyrimidin-2-amine], the concentration for half-maximal inhibition (IC50) came out at 51 nM.

With `[2H]C([2H])([2H])N1CCCC1CNc1ncc(-c2ccc(F)cc2F)c(C)n1` (stereo not shown) [Example 87], the IC50 was 45 nM.

As to `Cc1nc(NC2CCN(C(C)C)CC2)ncc1-c1ccc(OC(F)(F)F)cc1F` [Example 88, 5-(2-fluoro-4-(trifluoromethoxy)phenyl)-N-(1-isopropylpiperidin-4-yl)-4-methyl-pyrimidin-2-amine], the IC50 worked out at 149 nM.

On to `Cc1nc(NC2CCN(C)CC2)ncc1-c1ccc(OC(F)(F)F)cc1F` [Example 89, 5-(2-fluoro-4-(trifluoromethoxy)phenyl)-4-methyl-N-(1-methylpiperidin-4-yl)pyrimidin-2-amine], for which the IC50 is 180 nM.

With `[2H]C([2H])([2H])N1CCC[C@H]1CNc1ncc(-c2ccc(F)cc2F)c(C)n1` [Example 90a, (S)-5-(2,4-difluorophenyl)-4-methyl-N-((1-(trideuteriomethyl)pyrrolidin-2-yl)methyl)pyrimidin-2-amine], the half-inhibitory concentration (IC50) is 211 nM.

Consider `[2H]C([2H])([2H])N1CCC[C@@H]1CNc1ncc(-c2ccc(F)cc2F)c(C)n1` [Example 90b, (R)-5-(2,4-difluorophenyl)-4-methyl-N-((1-(trideuteriomethyl)pyrrolidin-2-yl)methyl)pyrimidin-2-amine], for which the IC50 is 186 nM.

In the case of `Cc1nc(NC[C@H]2CCCN2C)ncc1-c1ccc(C(F)(F)F)cc1F` [Example 91a, (R)-5-(2-fluoro-4-(trifluoromethyl)phenyl)-4-methyl-N-((1-methylpyrrolidin-2-yl)methyl)pyrimidin-2-amine], the IC50 was found to be 8 nM.

Turning to `Cc1nc(NC[C@@H]2CCCN2C)ncc1-c1ccc(C(F)(F)F)cc1F` [Example 91b, (S)-5-(2-fluoro-4-(trifluoromethyl)phenyl)-4-methyl-N-((1-methylpyrrolidin-2-yl)methyl)pyrimidin-2-amine], the IC50 came to 28 nM.

On to `Cc1nc(NC[C@H]2CCCN2C)ncc1-c1ccc(F)cc1C(F)(F)F` [Example 92a, (R)-5-(4-fluoro-2-(trifluoromethyl)phenyl)-4-methyl-N-((1-methylpyrrolidin-2-yl)methyl)pyrimidin-2-amine], for which the IC50 is 33 nM.

As to `Cc1nc(NC[C@@H]2CCCN2C)ncc1-c1ccc(F)cc1C(F)(F)F` [Example 92b, (S)-5-(4-fluoro-2-(trifluoromethyl)phenyl)-4-methyl-N-((1-methylpyrrolidin-2-yl)methyl)pyrimidin-2-amine], the IC50 turned out to be 73 nM.

As for `Cc1nc(NC[C@H]2CCCN2C)ncc1-c1ccc(OC(F)(F)F)cc1F` [Example 93a, (R)-5-(2-fluoro-4-(trifluoromethoxy)phenyl)-4-methyl-N-((1-methylpyrrolidin-2-yl)methyl)pyrimidin-2-amine], the IC50 was found to be 50 nM.

As to `Cc1nc(NC[C@@H]2CCCN2C)ncc1-c1ccc(OC(F)(F)F)cc1F` [Example 93b, (S)-5-(2-fluoro-4-(trifluoromethoxy)phenyl)-4-methyl-N-((1-methylpyrrolidin-2-yl)methyl)pyrimidin-2-amine], the IC50 was found to be 11 nM.

With `Cc1nc(NC[C@H]2CCCN2)ncc1-c1ccc(F)cc1F` [Example 94a, (R)-5-(2,4-difluorophenyl)-4-methyl-N-(pyrrolidin-2-ylmethyl)pyrimidin-2-amine], the IC50 is 5 nM.

As to `Cc1nc(NC[C@H]2CCCN2CC(F)(F)F)ncc1-c1ccc(F)cc1F` [Example 95a, (R)-5-(2,4-difluorophenyl)-4-methyl-N-((1-(2,2,2-trifluoroethyl)pyrrolidin-2-yl)methyl)pyrimidin-2-amine], the IC50 was 48 nM.

As for `Cc1nc(NC[C@@H]2CCCN2CC(F)(F)F)ncc1-c1ccc(F)cc1F` [Example 95b, (S)-5-(2,4-difluorophenyl)-4-methyl-N-((1-(2,2,2-trifluoroethyl)pyrrolidin-2-yl)methyl)pyrimidin-2-amine], the IC50 amounted to 70 nM.

Turning to `CCN1CCCC1CNc1ncc(-c2ccc(C(F)(F)F)cc2F)c(C)n1` (stereo not shown) [Example 98, N-((1-ethylpyrrolidin-2-yl)methyl)-5-(2-fluoro-4-(trifluoromethyl)phenyl)-4-methyl-pyrimidin-2-amine], the IC50 stood at 67 nM.

Turning to `Cc1nc(NCC2CCN(C)C2)ncc1-c1ccc(C(F)(F)F)cc1F` (stereo not shown) [Example 99, 5-(2-fluoro-4-(trifluoromethyl)phenyl)-4-methyl-N-((1-methylpyrrolidin-3-yl)methyl)pyrimidin-2-amine], the IC50 came out at 83 nM.

For `Cc1nc(N[C@H]2CCN(C(C)C)C2)ncc1-c1ccc(C(F)(F)F)cc1F` [Example 100, (S)-5-(2-fluoro-4-(trifluoromethyl)phenyl)-N-(1-isopropylpyrrolidin-3-yl)-4-methyl-pyrimidin-2-amine], the IC50 was determined as 110 nM.

Turning to `Cc1nc(NCC2CCN(C)CC2)ncc1-c1ccc(C(F)(F)F)cc1F` [Example 101, 5-(2-fluoro-4-(trifluoromethyl)phenyl)-4-methyl-N-((1-methyl-4-piperidinyl)methyl)pyrimidin-2-amine], the 50% inhibitory concentration (IC50) worked out at 109 nM.

As usually defined, the IC50 is the concentration that gives 50% inhibition.
